Measurements as given in patent EP4711368A1 (priority 2023, dated 2024).
Where two headings read alike, the source gives them in different places.

Tests used:
SD rats [1] = assay: animal or person; format: in vivo; settings: iv; for Minimal effective analgesic dose / Minimal effective anesthetic dose / Onset time / Righting feflex duration / Sedation Duration: rat, in vivo; for minimal effective dose: Rattus norvegicus
SD rats [2] = assay: TC-ED50 after single intravenous injection (Table 2; method not described); format: in vivo
SD rats [3] = settings: rat, in vivo; for MLD: iv
[4] = read-out: Minimal effective analgesic dose
[5] = read-out: Minimal effective anesthetic dose
Wherever Onset time is given: test concentration or dose not given here.
Wherever Righting feflex duration is given: test concentration or dose not given here.
Wherever Sedation Duration is given: test concentration or dose not given here.

| Structure (SMILES) | Minimal effective analgesic dose (SD rats [1]) | Minimal effective anesthetic dose (SD rats [1]) | Onset time (SD rats [1]) | Righting feflex duration (SD rats [1]) | Sedation Duration (SD rats [1]) | TC-ED50 (SD rats [2]) | TI (SD rats [3]) | MLD (SD rats [3]) | minimal effective dose (SD rats [1]; [4]) | minimal effective dose (SD rats [1]; [5]) | TI (SD rats [3]; SD) | MLD (SD rats [3]; SD) |
| --- | --- | --- | --- | --- | --- | --- | --- | --- | --- | --- | --- | --- |
| CC(C)OC(=O)OCC1N=C(c2ccccn2)c2cc(Br)ccc2N(C)C1=O (stereo not drawn) [Compound 55] | 20 mg/kg | 1.0 mg/kg | 0.2 to 0.7 min | 2.4 to 25.4 min | 11.3 to 141.0 min | 15.4 mg/kg | >20. 0 | >20 mg/kg |  |  |  |  |
| Cc1cnc2n1-c1ccc(Br)cc1C(c1ccccn1)=NC2COC(=O)C(C)C (stereo not drawn) [Compound 97] | 10 mg/kg | 2.0 mg/kg | 0.4 to 0.7 min | 0.7 to 129.9 min | 16.9 to 187.5 min | 9.9 mg/kg | 15.0 | 30 mg/kg |  |  |  |  |
| CCC(=O)OCC1N=C(c2ccccn2)c2cc(Br)ccc2-n2c(C)cnc21 (stereo not drawn) [Compound 98] | 20 mg/kg | 5.0 mg/kg | 0.5 to 0.6 min | 11.6 to 17.4 min | 72.5 to 208.7 min | 22.0 mg/kg | 6.0 | 30 mg/kg |  |  |  |  |
| CCC(C)(C)OC(=O)CN1N=C(c2ccccn2)c2cc(Br)ccc2-n2c(C)cnc21 [Compound 313] |  |  | 0.53 to 0.97 min | 12.27 to 13.62 min | 43.43 to 66.15 min |  |  |  | 20 mg/kg | 15 mg/kg | 2 | 30 mg/kg |
| Cc1cnc2n1-c1ccc(Br)cc1C(c1ccccn1)=NN2CC(=O)OC1(C)COC1 [Compound 314] |  |  | 0.15 to 0.67 min | 1.27 to 1.40 min | 11.02 to 18.83 min |  |  |  |  | 10 mg/kg | 4 | 40 mg/kg |
| Cc1cnc2n1-c1ccc(Br)cc1C(c1ccccn1)=NN2CCOC(=O)C(C)C [Compound 315] |  |  | 0.38 to 0.75 min | 0.58 to 2.35 min | 14.12 to 24.55 min |  |  |  | 30 mg/kg | 3.75 mg/kg | 2.7 | 10 mg/kg |
| Cc1cnc2n1-c1ccc(Br)cc1C(c1ccccn1)=NN2CCOC(=O)N(C)C [Compound 317] |  |  | 0.22 to 0.38 min | 4.08 to 25.97 min | 18.73 to 70.28 min |  |  |  | 10 mg/kg | 5 mg/kg | 4 | 20 mg/kg |
| Cc1cnc2n1-c1ccc(Br)cc1C(c1ccccn1)=NN2COC(=O)C(C)C [Compound 318] |  |  | 0.52 to 0.63 min | 0.58 to 10.53 min | 24.95 to 35.65 min |  |  |  |  | 5 mg/kg | >2 | >10 mg/kg |
| Cc1cnc2n1-c1ccc(Br)cc1C(c1ccccn1)=NN2COC(=O)CCCl [Compound 319] |  |  | 0.38 to 0.48 min | 7.58 to 8.00 min | 21.82 to 52.53 min |  |  |  |  | 7.5 mg/kg | >1.3 | >10 mg/kg |
| Cc1cnc2n1-c1ccc(Br)cc1C(c1ccccn1)=NN2COC(=O)N(C)C [Compound 320] |  |  | 0.65 to 0.92 min | 2.03 to 5.98 min |  |  |  |  | 15 mg/kg | 15 mg/kg | 2 | 30 mg/kg |
| Brc1ccc2c(c1)C(c1ccccn1)=NN1CCN=C1N2 [Compound 323] |  |  | 0.95 to 1.07 min | 13.12 to 21.08 min |  |  |  |  | 30 mg/kg | 30 mg/kg | >1.3 | >40 mg/kg |
| CC(C)OC(=O)CN1C2=NCCN2N=C(c2ccccn2)c2cc(Br)ccc21 [Compound 325] |  |  | 0.65 min | 3.65 min | 59.22 min |  |  |  | 40 mg/kg | 40 mg/kg | >1 | >40 mg/kg |
| CCOC(=O)CN1N=C(c2ccccn2)C(Br)=CN(C)C1=O [Compound 346] |  |  | 0.57 min | 2.63 min | 45.10 min |  |  |  | 18.4 mg/kg | 18.4 mg/kg | >1 | >18.4 mg/kg |
| CCOC(=O)CN1N=C(c2ccccn2)C=CN(C)C1=O [Compound 347] |  |  | 0.13 to 0.28 min | 2.25 to 4.47 min | 15.35 to 54.20 min |  |  | 40 mg/kg | 20 mg/kg | 20 mg/kg | 2 |  |
| CCOC(=O)CN1N=C(c2ccccn2)C(Cl)=CN(C)C1=O [Compound 348] |  |  | 0.75 min | 2.03 min | 116.72 min |  |  |  |  | 20 mg/kg | >1 | >20 mg/kg |
